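Five concentrations, 48 hours, 96-well plates. GI50 = concentration required for 50% inhibition of growth. TGI is the concentration that stops growth completely.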
Legend:
Assay in all cases: growth of human tumour cells (NCI), 48 h
CAKI-1 renal = system: CAKI-1 renal
COLO 205 colon = system: COLO 205 colon
HOP-62 NSCLC = system: HOP-62 NSCLC
786-0 renal = system: 786-0 renal
CCRF-CEM leukemia = system: CCRF-CEM leukemia
UACC-62 melanoma = system: UACC-62 melanoma
SNB-75 CNS = system: SNB-75 CNS
SK-MEL-2 melanoma = system: SK-MEL-2 melanoma
TK-10 renal = system: TK-10 renal
MDA-MB-435 = system: MDA-MB-435
EKVX NSCLC = system: EKVX NSCLC
U251 CNS = system: U251 CNS
SN12C renal = system: SN12C renal
SF-268 CNS = system: SF-268 CNS
OVCAR-5 ovarian = system: OVCAR-5 ovarian
SK-MEL-5 melanoma = system: SK-MEL-5 melanoma
MDA-MB-468 breast = system: MDA-MB-468 breast
SF-295 CNS = system: SF-295 CNS
HCT-116 colon = system: HCT-116 colon
OVCAR-8 ovarian = system: OVCAR-8 ovarian
IGROV1 ovarian = system: IGROV1 ovarian
RXF 393 renal = system: RXF 393 renal
SK-OV-3 ovarian = system: SK-OV-3 ovarian
MDA-MB-231 breast = system: MDA-MB-231 breast
SK-MEL-28 melanoma = system: SK-MEL-28 melanoma
A498 renal = system: A498 renal
HCC-2998 colon = system: HCC-2998 colon
DU-145 prostate = system: DU-145 prostate
HS 578T breast = system: HS 578T breast
HOP-92 NSCLC = system: HOP-92 NSCLC
MCF7 breast = system: MCF7 breast
LOX IMVI melanoma = system: LOX IMVI melanoma
K-562 leukemia = system: K-562 leukemia
PC-3 prostate = system: PC-3 prostate
MOLT-4 leukemia = system: MOLT-4 leukemia
NCI-H226 lung = system: NCI-H226 lung
BT-549 breast = system: BT-549 breast
NCI-H23 lung = system: NCI-H23 lung
SF-539 CNS = system: SF-539 CNS
UACC-257 melanoma = system: UACC-257 melanoma
HT29 colon = system: HT29 colon
NCI-H522 lung = system: NCI-H522 lung
NCI-H460 lung = system: NCI-H460 lung
KM12 colon = system: KM12 colon
SNB-19 CNS = system: SNB-19 CNS
OVCAR-3 ovarian = system: OVCAR-3 ovarian
M14 melanoma = system: M14 melanoma
UO-31 renal = system: UO-31 renal
HL-60(TB) leukemia = system: HL-60(TB) leukemia
A549 NSCLC = system: A549 NSCLC
SR leukemia = system: SR leukemia
OVCAR-4 ovarian = system: OVCAR-4 ovarian
ACHN renal = system: ACHN renal
T-47D breast = system: T-47D breast
MALME-3M melanoma = system: MALME-3M melanoma
SW-620 colon = system: SW-620 colon
RPMI-8226 leukemia = system: RPMI-8226 leukemia
HCT-15 colon = system: HCT-15 colon
NCI/ADR-RES ovarian = system: NCI/ADR-RES ovarian

CN(C)c1ccnc(CNCCSC2(c3ccc(C(F)(F)F)cc3)c3ccccc3C=Cc3ccccc32)c1 gave a GI50 (CAKI-1 renal) of 4.37 µM, a TGI (CAKI-1 renal) of 16.5 µM and a GI50 (COLO 205 colon) of 927 nM. For the same molecule, the TGI (COLO 205 colon) was 2900 nM, the GI50 (HOP-62 NSCLC) was 2690 nM and the TGI (HOP-62 NSCLC) was 13.9 µM. For the same molecule, the GI50 (786-0 renal) was 2490 nM, the TGI (786-0 renal) was 7.12 µM and the GI50 (CCRF-CEM leukemia) was 1060 nM. It also gave a TGI (CCRF-CEM leukemia) of 13.4 µM, a GI50 (UACC-62 melanoma) of 3.41 µM and a TGI (UACC-62 melanoma) of 8.81 µM. It also gave a GI50 (SNB-75 CNS) of 1760 nM, a TGI (SNB-75 CNS) of 6.61 µM and a GI50 (SK-MEL-2 melanoma) of 1200 nM. It also gave a TGI (SK-MEL-2 melanoma) of 3.72 µM, a GI50 (TK-10 renal) of 7.1 µM and a TGI (TK-10 renal) of 21.3 µM. For the same molecule, the GI50 (MDA-MB-435) was 605 nM, the TGI (MDA-MB-435) was 1340 nM and the GI50 (EKVX NSCLC) was 1770 nM. The TGI (EKVX NSCLC) was 14.2 µM, the GI50 (U251 CNS) was 1110 nM and the TGI (U251 CNS) was 4.03 µM. It also gave a GI50 (SN12C renal) of 2160 nM, a TGI (SN12C renal) of 8.08 µM and a GI50 (SF-268 CNS) of 3.67 µM. It also gave a TGI (SF-268 CNS) of 16.6 µM, a GI50 (OVCAR-5 ovarian) of 2740 nM and a TGI (OVCAR-5 ovarian) of 11.2 µM. It also gave a GI50 (SK-MEL-5 melanoma) of 1960 nM, a TGI (SK-MEL-5 melanoma) of 5.43 µM and a GI50 (MDA-MB-468 breast) of 740 nM. The TGI (MDA-MB-468 breast) was 1990 nM, the GI50 (SF-295 CNS) was 1600 nM and the TGI (SF-295 CNS) was 6.56 µM. For the same molecule, the GI50 (HCT-116 colon) was 611 nM, the TGI (HCT-116 colon) was 12.5 µM and the GI50 (OVCAR-8 ovarian) was 1180 nM. For the same molecule, the TGI (OVCAR-8 ovarian) was 4.73 µM, the GI50 (IGROV1 ovarian) was 2580 nM and the TGI (IGROV1 ovarian) was 16 µM. It also gave a GI50 (RXF 393 renal) of 1970 nM, a TGI (RXF 393 renal) of 7.54 µM and a GI50 (SK-OV-3 ovarian) of 4.38 µM. The TGI (SK-OV-3 ovarian) was 13.7 µM, the GI50 (MDA-MB-231 breast) was 1110 nM and the TGI (MDA-MB-231 breast) was 3.36 µM. For the same molecule, the GI50 (SK-MEL-28 melanoma) was 4.34 µM, the TGI (SK-MEL-28 melanoma) was 9.09 µM and the GI50 (A498 renal) was 11.9 µM. The TGI (A498 renal) was 27.2 µM, the GI50 (HCC-2998 colon) was 910 nM and the TGI (HCC-2998 colon) was 2630 nM. The GI50 (DU-145 prostate) was 3.12 µM, the TGI (DU-145 prostate) was 10.8 µM and the GI50 (HS 578T breast) was 1570 nM. It also gave a TGI (HS 578T breast) of 6.75 µM, a GI50 (HOP-92 NSCLC) of 2170 nM and a TGI (HOP-92 NSCLC) of 10.2 µM. The GI50 (MCF7 breast) was 853 nM, the TGI (MCF7 breast) was 4.19 µM and the GI50 (LOX IMVI melanoma) was 2200 nM. It also gave a TGI (LOX IMVI melanoma) of 6.16 µM, a GI50 (K-562 leukemia) of 2800 nM and a TGI (K-562 leukemia) of 14 µM. The GI50 (PC-3 prostate) was 1490 nM, the TGI (PC-3 prostate) was 11.3 µM and the GI50 (MOLT-4 leukemia) was 1120 nM. It also gave a TGI (MOLT-4 leukemia) of 5.41 µM, a GI50 (NCI-H226 lung) of 5.45 µM and a TGI (NCI-H226 lung) of 16.3 µM. For the same molecule, the GI50 (BT-549 breast) was 3.19 µM, the TGI (BT-549 breast) was 9.62 µM and the GI50 (NCI-H23 lung) was 2800 nM. For the same molecule, the TGI (NCI-H23 lung) was 9.31 µM, the GI50 (SF-539 CNS) was 1120 nM and the TGI (SF-539 CNS) was 3.18 µM. For the same molecule, the GI50 (UACC-257 melanoma) was 4.33 µM, the TGI (UACC-257 melanoma) was 11.2 µM and the GI50 (HT29 colon) was 1790 nM. For the same molecule, the TGI (HT29 colon) was 5.65 µM, the GI50 (NCI-H522 lung) was 771 nM and the TGI (NCI-H522 lung) was 2490 nM. For the same molecule, the GI50 (NCI-H460 lung) was 1090 nM, the TGI (NCI-H460 lung) was 3.86 µM and the GI50 (KM12 colon) was 1410 nM. For the same molecule, the TGI (KM12 colon) was 5.33 µM, the GI50 (SNB-19 CNS) was 3.53 µM and the TGI (SNB-19 CNS) was 17.3 µM. For the same molecule, the GI50 (OVCAR-3 ovarian) was 1730 nM, the TGI (OVCAR-3 ovarian) was 5.93 µM and the GI50 (M14 melanoma) was 598 nM. It also gave a TGI (M14 melanoma) of 2690 nM, a GI50 (UO-31 renal) of 3.91 µM and a TGI (UO-31 renal) of 16.2 µM. The GI50 (HL-60(TB) leukemia) was 1200 nM, the TGI (HL-60(TB) leukemia) was 3.91 µM and the GI50 (A549 NSCLC) was 1350 nM. For the same molecule, the TGI (A549 NSCLC) was 5.71 µM, the GI50 (SR leukemia) was 723 nM and the TGI (SR leukemia) was 4.15 µM. It also gave a GI50 (OVCAR-4 ovarian) of 5.33 µM, a TGI (OVCAR-4 ovarian) of 16.3 µM and a GI50 (ACHN renal) of 3.21 µM. It also gave a TGI (ACHN renal) of 14.6 µM, a GI50 (T-47D breast) of 4.63 µM and a TGI (T-47D breast) of 15.7 µM. The GI50 (MALME-3M melanoma) was 2350 nM, the TGI (MALME-3M melanoma) was 6.51 µM and the GI50 (SW-620 colon) was 1000 nM. It also gave a TGI (SW-620 colon) of 4.45 µM, a GI50 (RPMI-8226 leukemia) of 1030 nM and a TGI (RPMI-8226 leukemia) of 4.41 µM. The GI50 (HCT-15 colon) was 1120 nM, the TGI (HCT-15 colon) was 6.62 µM and the GI50 (NCI/ADR-RES ovarian) was 2000 nM. For the same molecule, the TGI (NCI/ADR-RES ovarian) was 4.39 µM.

Reference: PubChem BioAssay (NCI)
